ChEMBL document CHEMBL4699427, “A3- and A2B-fluorocorroles: synthesis, X-ray characterization and antiviral activity evaluation against human cytomegalovirus infection” (RSC Med Chem, 2020)
Active and inactive are the calls of the source. No cut-off for these calls is given here.

What was measured:
[1] = Selectivity index, ratio of CC50 for human MRC5 cells to IC50 for human Cytomegalovirus infected in human MRC5 cells incubated for 6 days; type: toxicity, cell-based; settings: time 6 day, read-out: Ratio CC50/IC50
[2] = Cytotoxicity against human MRC5 cells assessed as reduction in cell viability incubated for 6 days by Hoechst 33342 staining based microscopic analysis; settings: time 6 day
[3] = system: Human betaherpesvirus 5; test: Antiviral activity against human Cytomegalovirus infected in human ARPE-19 cells assessed as reduction in infection rate incubated for 6 days by Hoechst 33342 staining based microscopic analysis; type: functional, cell-based; settings: arpe-19
[4] = Cytotoxicity against human ARPE-19 cells assessed as reduction in cell viability incubated for 6 days by Hoechst 33342 staining based microscopic analysis; settings: time 6 day
[5] = system: Human betaherpesvirus 5; test: Antiviral activity against Human Cytomegalovirus infected in human MRC5 cells assessed as reduction in infection rate incubated for 6 days by Hoechst 33342 staining based microscopic analysis; type: functional, cell-based
[6] = system: Human betaherpesvirus 5; test: Antiviral activity against human Cytomegalovirus infected in human ARPE-19 cells assessed as reduction in infection rate incubated for 10 days by Hoechst 33342 staining based microscopic analysis; type: functional, cell-based
[7] = Selectivity index, ratio of CC50 for human MRC5 cells to IC50 for human Cytomegalovirus infected in human ARPE-19 cells incubated for 10 days; type: toxicity, cell-based; settings: time 6 day, read-out: Ratio CC50/IC50
[8] = Drug uptake in rabbit RK13 cells incubated for 24 hrs by Hoechst staining based microscopic analysis; type: ADME, cell-based, Oryctolagus cuniculus; settings: rk13, 24 h
[9] = system: Human betaherpesvirus 5; test: Antiviral activity against human Cytomegalovirus infected in human MRC5 cells assessed as reduction in viral replication incubated for 6 days by Hoechst 33342 staining based microscopic analysis; type: functional, cell-based; settings: Human betaherpesvirus 5, MRC5, 144 h
[10] = Selectivity index, ratio of CC50 for human MRC5 cells to IC50 for human Cytomegalovirus infected in human ARPE-19 cells incubated for 12 days; type: toxicity, cell-based; settings: time 6 day, read-out: Ratio CC50/IC50
[11] = system: Human betaherpesvirus 5; test: Antiviral activity against human Cytomegalovirus infected in human ARPE-19 cells assessed as reduction in infection rate incubated for 12 days by Hoechst 33342 staining based microscopic analysis; type: functional, cell-based; settings: Human betaherpesvirus 5, ARPE-19, 288 h
[12] = system: Human betaherpesvirus 5; test: Antiviral activity against human Cytomegalovirus infected in human ARPE-19 cells assessed as reduction in viral replication incubated for 13 days by Hoechst 33342 staining based microscopic analysis; type: functional, cell-based; settings: Human betaherpesvirus 5, ARPE-19, 312 h
[13] = Selectivity index, ratio of CC50 for human MRC5 cells to IC50 for human Cytomegalovirus infected in human ARPE-19 cells incubated for 13 days; type: toxicity, cell-based; settings: time 6 day, read-out: Ratio CC50/IC50
[14] = system: Human betaherpesvirus 5; test: Antiviral activity against human Cytomegalovirus harboring ANCHOR infected in human MRC5 cells assessed as reduction in infection rate at 0.15 to 0.625 uM incubated for 6 days by Hoechst 33342 staining based microscopic analysis relative to control; type: functional, cell-based; settings: dose microM 0.625-0.15, time 6.0 day
[15] = system: Human betaherpesvirus 5; test: Antiviral activity against human Cytomegalovirus harboring ANCHOR infected in ARPE-19 cells assessed as reduction in replication by measuring UL44 expression at 0.6 to 0.15 uM by immunofluorescence B31assay; type: functional, cell-based; settings: dose microM 0.625-0.15, time 10.0 day
[16] = Human betaherpesvirus 5, MRC5, 144 h, read-out: IC50
[17] = Human betaherpesvirus 5, ARPE-19, 240 h, read-out: IC50

SMILES	IC50 [3]	IC50 [6, 17]	selectivity ratio at 144 h [1]	CC50 at 144 h [2]	CC50 at 144 h [4]	IC50 [5, 16]	selectivity ratio at 144 h [7]	further results
CN(C)c1c(F)c(F)c(-c2c3ccc([nH]3)c(-c3c(F)c(F)cc(F)c3F)c3nc(c4ccc([nH]4)c(-c4c(F)c(F)cc(F)c4F)c4ccc2[nH]4)C=C3)c(F)c1F			> 23.6	> 50 µM		2.11 µM		IC50 ([6]; arpe-19): Not Active
Fc1cc(-c2c3nc(c4ccc([nH]4)c(-c4cc(F)c(F)c(F)c4F)c4ccc([nH]4)c(-c4cc(F)c(F)c(F)c4F)c4ccc2[nH]4)C=C3)c(F)c(F)c1F			> 7	> 50 µM		6.42 µM		selectivity ratio at 144 h [10]: > 13; IC50 [11]: 3.71 µM
O=[N+]([O-])c1ccc(-c2c3ccc([nH]3)c(-c3c(F)c(F)cc(F)c3F)c3nc(c4ccc([nH]4)c(-c4c(F)c(F)cc(F)c4F)c4ccc2[nH]4)C=C3)s1			15.6	4.17 µM		0.27 µM		IC50 [12]: 0.13 µM; selectivity ratio at 144 h [13]: 385
Cc1ccc(F)c(-c2c3nc(c4ccc([nH]4)c(-c4cc(C)ccc4F)c4ccc([nH]4)c(-c4cc(C)ccc4F)c4ccc2[nH]4)C=C3)c1	Not Active			> 50 µM	> 50 µM			IC50 ([5]; mrc5): Not Active
Fc1ccc(F)c(-c2c3nc(c4ccc([nH]4)c(-c4cc(F)ccc4F)c4ccc([nH]4)c(-c4cc(F)ccc4F)c4ccc2[nH]4)C=C3)c1	Not Active			> 50 µM	> 50 µM			IC50 ([5]; mrc5): Not Active
Fc1cc(F)c(F)c(-c2c3ccc([nH]3)c(-c3c(F)c(F)c(F)c(F)c3F)c3nc(c4ccc([nH]4)c(-c4c(F)c(F)c(F)c(F)c4F)c4ccc2[nH]4)C=C3)c1F		0.31 µM	9.77	3.03 µM		0.31 µM	151	
Fc1cc(F)c(F)c(-c2c3nc(c4ccc([nH]4)c(-c4c(F)c(F)cc(F)c4F)c4ccc([nH]4)c(-c4c(F)c(F)nc(F)c4F)c4ccc2[nH]4)C=C3)c1F		0.05 µM	37.8	3.4 µM		0.09 µM	450	Activity [14]: Active; Activity [15]: Active

Continued, in another order:

IC50 [3]	IC50 [6, 17]	SMILES	selectivity ratio at 144 h [1]	CC50 at 144 h [2]	CC50 at 144 h [4]	IC50 [5, 16]	selectivity ratio at 144 h [7]	further results
Not Active		Fc1cc(-c2c3nc(c4ccc([nH]4)c(-c4cc(F)c(F)c(F)c4)c4ccc([nH]4)c(-c4cc(F)c(F)c(F)c4)c4ccc2[nH]4)C=C3)cc(F)c1F	> 7	> 50 µM	> 50 µM	6.3 µM		
	0.5 µM	Fc1cc(F)c(F)c(-c2c3ccc([nH]3)c(-c3c(F)c(F)cc(F)c3F)c3nc(c4ccc([nH]4)c(-c4c(F)c(F)cc(F)c4F)c4ccc2[nH]4)C=C3)c1	18.5	21.5 µM		1.16 µM	62	Drug uptake [8]: Active
Not Active		Fc1cc(F)c(-c2c3nc(c4ccc([nH]4)c(-c4c(F)cc(F)cc4F)c4ccc([nH]4)c(-c4c(F)cc(F)cc4F)c4ccc2[nH]4)C=C3)c(F)c1	> 9	> 50 µM	> 50 µM			IC50 [9]: 5.57 µM
	0.05 µM	Fc1cc(-c2c3ccc([nH]3)c(-c3c(F)c(F)cc(F)c3F)c3nc(c4ccc([nH]4)c(-c4c(F)c(F)cc(F)c4F)c4ccc2[nH]4)C=C3)ccn1	10.8	0.65 µM		0.06 µM	114	
